{"source": "patent EP1024807B1", "about": "“USE OF THE COMPOUND 2-METHOXYPHENYL-1-METHYL-5P-METHYLBENZOYL-PYRROL-2-ACETAMIDO ACETATE FOR THE PRODUCTION OF AN ANTI-INFLAMMATORY DRUG WITH PREVENTION OF GASTRIC HYPERSECRETION AND RENAL IMPAIRMENT” (MEDOSAN Ricerca S.r.l., priority 1997, dated 1999)", "key": {"[1]": {"tested_on": "gastric PGE2", "assay": "Effect on gastric PGE2 in the rat", "format": "in vivo", "excerpt": "Moreover, as with all the NSAIDs currently aveilable, it inhibits gastric PGE2 in the rat, albeit to a lesser degree than ASA (Table 7)."}, "[2]": {"tested_on": "Rats", "assay": "Diuresis in normally hydrated rats", "format": "in vivo", "experimental": "In the course of various studies conducted on animals to show the lack of renal impairment, a test was carried out to compare the diuresis in normally hydrated rats treated orally for 8 consecutive days with amtolmeting guacyl and diclofenac, which is also a NSAID. […] It is to be stressed that the behaviour of diclofenac is completely in line with the behaviour of a NSAID as known in the art, that is to say to markedly reduce the diuresis, while that of amtolmeting guacyl is completely unforeseeable.\nRepeated doses (one per day) for 8 days increased diuresis in the treated rats by 35% (see fig. 13)."}, "[3]": {"tested_on": "patients", "settings": "336 patients, Diclofenac 100mg, cited from earlier work; for Suspensions of treatment: number of patients, 180 days of treatment; for % of totale: suspensions of treatment, 180 days"}, "[4]": {"tested_on": "post-traumatic arthralgia", "assay": "Clinical comparison in post-traumatic arthralgia", "format": "in vivo, man", "excerpt": "The same can be said in the treatment of post-traumatic arthralgia."}, "[5]": {"tested_on": "Rats", "assay": "Carrageenan pleurisy, exudate volume at 4 hours", "format": "in vivo", "experimental": "Compounds were administered orally 1 hour prior to and 1 hour post pleurisy induction in a volume of 0.5 ml 1% gum tragacanth. Indomethacin was used at 3 mg/kg. MED 15 was used at 25, 50 and 100 mg/kg.\nA 1% solution of carrageenan in sterile saline was prepared. The solution was placed in an incubator at 37°C for half an hour to allow complete hydration of the carrageenan. The solution was then mixed to homogeneity.\nA 21Gx40mm syringe needle was reduced in length to 5mm and fitted to a 1ml syringe containing the irritant. Rats were lightly anaesthetised with halothane. Each animal was placed on its left side. The skin over the thorax was lifted with and a 1cm incision made through the skin with a pair of scissors. The wound was opened to expose the underlying muscle. Using a scalpel, a 2-3mm incision was made into the muscle of the 5th-6th intercostal space. A volume of 0.15ml of carrageenan solution was then injected into the pleural cavity. The wound was closed with a 11mm Michel clip and the animal allowed to recover from the anaesthetic. Groups of animals were killed 4 hours after pleurisy induction.\nLavage solution: One part of 3.15% trisodium citrate solution, mixed with nine parts of Hank's balanced salt solution.\nRats were killed by over exposure to carbon dioxide. For each rat the skin over the thorax was moistened with IMS alcohol. The skin over the sternum was then lifted and a 5cm cut made, to expose the musculature of the upper abdomen and thoracic cavity. The muscle overlying the xiphisternum was lifted with tissue forceps and a 1cm cut made through the muscle to reveal the cartilage. This was then lifted and the diaphragm perforated just beneath the cartilage. Two cuts were then made through the rib cage either side of the cartilage to form a flap which could be folded back to expose the thoracic cavity.\nUsing a syringe, 1ml of lavage fluid was introduced into the thoracic cavity. The fluid was aspirated 2-3 times with a 3ml pastette to wash the cavity, before being collected into separate 10ml conical-based plastic test-tubes. Any blood contaminated fluids were rejected.\nThe mass of each tube with fluid was determined. By subtracting the mass of an empty tube from these values, and assuming a density for the fluid of 1g/cm^3, the fluid volume was quantified.\nResults were analysed by ANOVA followed by Bonferroni T-test. Values of p<0.05 were considered significant.\nDosing was one hour prior to and one hour post pleurisy induction and inflammation was assessed at 4 hours."}, "[6]": {"tested_on": "patients", "assay": "Clinical trials: tolerability, adverse events and suspensions of treatment", "format": "in vivo, man", "settings": "31 comparative and 6 non-comparative clinical trials, 1596 patients", "excerpt": "Interest in the amtolmetin guacyl molecule arose following a thorough analysis of the results of 31 comparative and 6 non-comparative clinical trials involving 1596 patients. […] Turthermore the physician, being aware of administering an NSAID, was expecting adverse events and could not be expected to be an impartial observer. The few cases of gastro-intestinal phenomena reported with amtolmetin guacyl were transitory and in no event accompanied by the presence of occult blood in the stools. Moreover, even in the presence of a reported side-effect it was almost never necessary to suspend treatment (0.4% of suspensions).\nFollowing are summarized the results obtained on a total of 1596 patients in 37 clinical trials.\nConfirmation of the above described advantages is the very low incidence of treatment suspension for adverse events found in clinics (Table 17), which is not the case for most of NSAIDs known in the art (Table 18)."}, "[7]": {"tested_on": "Rats", "assay": "Adjuvant arthritis (joint diameter and patellar bone mass)", "format": "in vivo", "settings": "for % Change: ([left-right]/right)X100", "experimental": "The drugs were administered daily by oral gavage for 4 days (day 0-3); piroxicam and MED 15 were dissolved in 5% Gum arabic + 0.01% Tween 80, and administered in a volume of 0.5ml. Piroxicam was administered as 3mg/kg and MED 15 was administered as 25, 50 and 100mg/kg doses. Table 8 bis illustrating dosage regimes. L=left stifle joint, R=Right stifle joint.\nUnder halothane anaesthesia, rats received 200µg of heat-killed finely ground Mycobactyerium tubercolosis in 25µl (80mg/10ml sterile saline) injected intra-articulary into the left stifle joint. The contralateral joint received 25µl 0.9% sterile saline. Control animals received 25µl of 0.9% sterile saline in both knees. SGE 50µl microsyringes with a volume lock calibrated at 25µl were used with 30G stainless steel needles. Solutions were prepared sterile, and aseptic technique was used throughout, with sterilisation of syringes between groups.\nThe rats were killed by carbon dioxide suffocation. The body weight was noted and the skin overlying the stifle joints was divided and the joint diameters assessed in mm using Mitutoyo vernier callipers (530-312, 0.02mm).\nThe patellae were dissected, weighed (Sartorius, 0.01mg) and then immersed in 1ml digestion buffer (see below) to remove soft tissue.\nDigestive buffer was prepared fresh to the following formula; disodium hydrogen orthophosphate 20mM, EDTA 1mM and diothiothreitol at 2mM. Papain (EC 3.4.22.2) was added at a concentration of 6U/ml. Each patella was digested in 1ml of digestive buffer at 56°C for 4 hours. The residual paterllar bones were dried (100°C 24 hours) and weighed (Sartorius 0.01mg).\nResults are presented as follows: left and right parameter alone, the difference between arthritic and contralateral control joint (left-right); and % difference between arthritic and control joints ([left-right]/right]X100).\nCalculations were carried out using the spreadsheet program Lotus 123. Statistical comparisons were made between the absolute differences using INSTAT Mann Whitney unpaired two-tailed statistical test."}}}
{"smiles": "CC(=O)Oc1ccccc1C(=O)O", "note": "[ASA, acetyl salicylic acid, reference compound]", "values": [{"measurement": "%inhibition", "setting": "[1]; gastric PGE2 versus controls", "value": 86.7, "unit": "%"}, {"measurement": "PGE2 (ngtg^Δ tissue)±S.E.", "setting": "[1]; gastric tissue, rat, controls 108.7±23.9", "value": "14.4±4.5 nanograms for gram of tissue"}]}
{"smiles": "O=C(O)Cc1ccccc1Nc1c(Cl)cccc1Cl", "note": "[Diclofenac, reference compound]", "values": [{"measurement": "decreased diuresis", "setting": "[2]; single dose, average", "value": 10, "unit": "%"}, {"measurement": "diuresis", "setting": "[2]; treated orally for 8 consecutive days, fig. 13", "value": "clear decrease"}, {"measurement": "Suspensions of treatment", "setting": "[3]", "value": 63}, {"measurement": "% of totale", "setting": "[3]", "value": "18,7%"}, {"measurement": "duration of effect", "setting": "[4]", "value": 3, "unit": "h"}, {"measurement": "latency time", "setting": "[4]", "value": 20, "unit": "min"}, {"measurement": "time to reach peak effect", "setting": "[4]", "value": 1, "unit": "h"}]}
{"smiles": "COc1ccc2c(c1)c(CC(=O)O)c(C)n2C(=O)c1ccc(Cl)cc1", "note": "[Indomethacin, reference compound]", "values": [{"measurement": "Exudate volume", "setting": "[5]; 3mg/kg orally 1 hour prior to and 1 hour post induction, 4 hour, control 0.94±0.04", "value": "0.47 ± 0.11", "unit": "mL"}, {"measurement": "reduction in exudate volume", "setting": "[5]; 3mg/kg, compared to gum tragacanth control", "value": 50, "unit": "%"}, {"measurement": "incidence of adverse events involving the stomach", "setting": "[6]", "value": "≥ 30", "unit": "%"}]}
{"smiles": "Cc1cnc(NC(=O)C2=C(O)c3ccccc3S(=O)(=O)N2C)s1", "note": "[Meloxicam]", "values": [{"measurement": "Suspensions of treatment", "setting": "[3]", "value": 42}, {"measurement": "% of totale", "setting": "[3]", "value": "12,4%"}]}
{"smiles": "CN1C(C(=O)Nc2ccccn2)=C(O)c2ccccc2S1(=O)=O", "note": "[Piroxicam, reference compound]", "values": [{"measurement": "Swelling Diameter difference (L-R)", "setting": "[7]; 3mg/kg daily oral, day 0-3", "value": 1.67, "unit": "mm"}, {"measurement": "Joint diameter (mm) Left", "setting": "[7]; 3mg/kg daily oral, day 0-3, left = arthritic joint", "value": 10.41, "unit": "mm"}, {"measurement": "Joint diameter (mm) Right", "setting": "[7]; 3mg/kg daily oral, day 0-3, right = saline control joint", "value": 8.74, "unit": "mm"}, {"measurement": "% Change", "setting": "[7]; joint diameter, 3mg/kg daily oral", "value": 19.15, "unit": "%"}, {"measurement": "% Change", "setting": "[7]; patellar bone mass, 3mg/kg daily oral", "value": -27.74, "unit": "%"}, {"measurement": "protection against bone loss", "setting": "[7]; patellar bone mass, arthritic groups", "value": "greatest protection against bone loss"}, {"measurement": "Bone loss Left-Right", "setting": "[7]; patellar bone, 3mg/kg daily oral", "value": -1.31, "unit": "mg"}, {"measurement": "Bone mass (mg) Left", "setting": "[7]; patellar bone, 3mg/kg daily oral, left = arthritic joint", "value": 3.07, "unit": "mg"}, {"measurement": "Bone mass (mg) Right", "setting": "[7]; patellar bone, 3mg/kg daily oral, right = saline control joint", "value": 4.21, "unit": "mg"}]}
